Consider 27 molecules from publication PMC6519732 (Journal of medicinal chemistry, 2019).

Data set [1] can be described thus: Metabolic stability in human liver microsomes. The format is in vitro ADME. Conditions: for half-life at 2 μM: human, liver microsomes.
Data set [2] relates to HepaRG cells. The experiment in a line: CellTiter-Blue cell viability assay, HepaRG. Conditions: 24 h of treatment, highest tested concentration (100 μM). On the technique in general: Resazurin is reduced to fluorescent resorufin, in cell work by metabolically active cells.
The target in data set [3] is T1, human recombinant HDAC6 (Homo sapiens, UniProt Q9UBN7).
T1 sequence (Q9UBN7 1-1215): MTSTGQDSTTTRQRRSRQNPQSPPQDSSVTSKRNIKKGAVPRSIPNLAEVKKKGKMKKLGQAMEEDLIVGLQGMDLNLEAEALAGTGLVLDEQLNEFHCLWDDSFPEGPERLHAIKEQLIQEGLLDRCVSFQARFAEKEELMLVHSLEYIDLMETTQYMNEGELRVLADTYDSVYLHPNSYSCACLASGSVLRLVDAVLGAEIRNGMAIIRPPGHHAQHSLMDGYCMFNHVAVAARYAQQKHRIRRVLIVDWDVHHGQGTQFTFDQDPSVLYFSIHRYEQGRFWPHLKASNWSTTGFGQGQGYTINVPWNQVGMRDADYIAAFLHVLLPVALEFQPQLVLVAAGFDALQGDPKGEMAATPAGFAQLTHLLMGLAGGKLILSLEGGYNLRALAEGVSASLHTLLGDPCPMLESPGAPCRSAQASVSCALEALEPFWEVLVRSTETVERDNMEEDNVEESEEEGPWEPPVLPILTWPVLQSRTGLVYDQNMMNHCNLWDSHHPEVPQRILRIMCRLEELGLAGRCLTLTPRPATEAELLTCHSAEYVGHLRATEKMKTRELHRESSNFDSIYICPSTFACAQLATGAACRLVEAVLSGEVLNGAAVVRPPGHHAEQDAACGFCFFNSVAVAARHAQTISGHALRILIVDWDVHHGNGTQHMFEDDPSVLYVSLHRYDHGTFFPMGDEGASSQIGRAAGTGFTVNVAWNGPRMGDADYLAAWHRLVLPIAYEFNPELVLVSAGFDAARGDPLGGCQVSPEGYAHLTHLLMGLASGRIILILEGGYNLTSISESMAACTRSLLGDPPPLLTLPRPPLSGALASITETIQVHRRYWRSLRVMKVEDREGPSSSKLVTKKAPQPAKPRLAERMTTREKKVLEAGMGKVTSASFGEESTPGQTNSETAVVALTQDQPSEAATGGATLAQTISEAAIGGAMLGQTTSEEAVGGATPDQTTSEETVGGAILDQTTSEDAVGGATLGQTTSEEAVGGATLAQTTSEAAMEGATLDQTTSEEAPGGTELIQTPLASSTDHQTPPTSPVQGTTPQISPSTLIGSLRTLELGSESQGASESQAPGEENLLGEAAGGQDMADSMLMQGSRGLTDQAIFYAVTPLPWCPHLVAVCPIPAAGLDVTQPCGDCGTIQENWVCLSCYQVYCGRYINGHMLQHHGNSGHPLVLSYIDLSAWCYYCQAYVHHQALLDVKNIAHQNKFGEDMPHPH
It counts as biochemical. The conditions noted are these: for HDAC6 inhibition: concentrations up to 25 μM, data not shown; for LE, HDAC6 (ligand efficiency): from IC50 in place of Kd, T = 310 K; for SF 1/6, selectivity factor for HDAC6 over HDAC1: IC50(HDAC1)/IC50(HDAC6).

The target of data set [4] is human recombinant HDAC1 (Homo sapiens, UniProt Q13547). The experiment in a line: In vitro HDAC1 inhibition, fluorogenic ZMAL assay. The format is biochemical.
Sequence of human recombinant HDAC1 (Q13547 whole entry): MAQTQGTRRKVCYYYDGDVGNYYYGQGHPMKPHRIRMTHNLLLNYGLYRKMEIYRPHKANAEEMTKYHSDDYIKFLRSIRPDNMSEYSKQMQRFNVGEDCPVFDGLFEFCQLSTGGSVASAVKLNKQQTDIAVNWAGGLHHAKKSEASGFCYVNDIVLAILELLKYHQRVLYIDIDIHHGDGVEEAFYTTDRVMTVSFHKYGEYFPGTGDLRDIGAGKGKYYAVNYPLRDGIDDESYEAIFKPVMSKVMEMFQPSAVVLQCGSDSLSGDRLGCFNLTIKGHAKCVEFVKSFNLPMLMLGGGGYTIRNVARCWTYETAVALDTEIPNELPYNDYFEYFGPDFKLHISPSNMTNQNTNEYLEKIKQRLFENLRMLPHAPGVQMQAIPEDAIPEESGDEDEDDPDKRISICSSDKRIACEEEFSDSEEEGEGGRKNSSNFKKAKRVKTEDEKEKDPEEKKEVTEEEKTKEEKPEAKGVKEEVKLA
Data set [5] concerns hHDAC6. Conditions: cited from earlier work.

SMILES strings stand for the structures. Some results are limits rather than exact numbers.

In general, half-life refers to how long it takes for the measured level to halve. As to `Cn1c(=O)c2c(ncn2C)n(C)c1=O` [Caffeine, reference compound], the half-life at 2 μM in data set [1] was greater than 40 min. As to `O=C(NO)c1ccc(CN2c3ccccc3Sc3ccccc32)cc1` [Compound 1a, 4-[(10H-Phenothiazin-10-yl)methyl]-N-hydroxybenzamide], in data set [2], the “Viability of HepaRG cells” value is given as “not affected”. In addition, in data set [1], the “human liver microsomal stability (in words)” value was “moderate stability” and the half-life at 2 μM was greater than 40 min. The compound remaining result in data set [1] (human liver microsomes, after 40 min incubation) is recorded as “about 77%”. As for `O=C(O)c1ccc(CN2c3ccccc3Sc3ccccc32)cc1` [Compound 5a, 4-[(10H-Phenothiazin-10-yl)methyl]benzoic acid], in data set [3], the “activity on HDAC6 (in words)” value is “inactive” and the HDAC6 inhibition result was “did not show noteworthy HDAC6 inhibition”. The corresponding values for `O=C(O)c1ccc(CN2c3ccncc3Sc3ncccc32)cc1` [Compound 5n, 4-[(5H-Dipyrido[2,3-b:4’,3’-e][1,4]thiazin-5-yl)methyl]benzoic acid] are “inactive” and “did not show noteworthy HDAC6 inhibition”. Take `O=C(NO)c1ccc(CN2c3ccccc3Sc3cccc(Cl)c32)cc1` [Compound 7c, 4-[(1-Chloro-10H-phenothiazin-10-yl)methyl]-N-hydroxybenzamide]: in data set [3], the “LE, HDAC6 (ligand efficiency)” value is listed as 0.43 (kcal/mol)/non-H-Atom.

For the molecule `O=C(NO)c1ccc(CN2c3ccccc3Sc3ccc(C(F)(F)F)cc32)cc1` [Compound 7d, N-Hydroxy-4-{[2-(trifluoromethyl)-10H-phenothiazin-10-yl]methyl}benzamide], the “LE, HDAC6 (ligand efficiency)” value in data set [3] is 0.37 (kcal/mol)/non-H-Atom. As for `O=C(NO)c1ccc(CN2c3ccccc3[S+]([O-])c3ccccc32)cc1` [Compound 7e, N-Hydroxy-4-[(5-oxido-10H-phenothiazin-10-yl)methyl]benzamide], the “LE, HDAC6 (ligand efficiency)” value in data set [3] was 0.39 (kcal/mol)/non-H-Atom. Same read-out and setting: as for `O=C(NO)c1ccc(CN2c3ccccc3Sc3ccc(Cl)cc32)cc1` [Compound 7f, 4-[(2-Chloro-10H-phenothiazin-10-yl)methyl]-N-hydroxybenzamide], the figure is 0.43 (kcal/mol)/non-H-Atom. On the same count and under the same terms, next, `COc1ccc2c(c1)N(Cc1ccc(C(=O)NO)cc1)c1ccccc1S2` [Compound 7g, N-Hydroxy-4-[(2-methoxy-10H-phenothiazin-10-yl)methyl]benzamide]: 0.42 (kcal/mol)/non-H-Atom; `CCSc1ccc2c(c1)N(Cc1ccc(C(=O)NO)cc1)c1ccccc1S2` [Compound 7h, 4-{[2-(Ethylthio)-10H-phenothiazin-10-yl]methyl}-N-hydroxybenzamide]: 0.38 (kcal/mol)/non-H-Atom.

Broadly, the IC50 is the concentration that inhibits the measured activity by half. For the molecule `O=C(NO)c1ccc(CN2c3ccccc3Sc3ccncc32)cc1` [Compound 7j, 4-[(10H-Benzo[b]pyrido[3,4-e][1,4]thiazin-10-yl)methyl]-N-hydroxybenzamide], the half-maximal inhibitory concentration (IC50) in data set [4] was found to be 1.25 ± 0.01 µM. Further, in data set [3], the “SF 1/6, selectivity factor for HDAC6 over HDAC1” value (“SF 1/6, selectivity factor” below) is reported as 179 and the “LE, HDAC6 (ligand efficiency)” value was 0.46 (kcal/mol)/non-H-Atom. The corresponding values for `O=C(NO)c1ccc(CN2c3ccccc3Sc3nccnc32)cc1` [Compound 7k, 4-[(10H-Benzo[b]pyrazino[2,3-e][1,4]thiazin-10-yl)methyl]-N-hydroxybenzamide] are 3.84 ± 0.13 µM, 226 and 0.44 (kcal/mol)/non-H-Atom. The corresponding values for `O=C(NO)c1ccc(CN2c3cccnc3Sc3cccnc32)cc1` [Compound 7l, 4-[(10H-Dipyrido[2,3-b:2’,3’-e][1,4]thiazin-10-yl)methyl]-N-hydroxybenzamide] are 3.39 ± 0.23 µM, 242 and 0.45 (kcal/mol)/non-H-Atom.

On to `O=C(NO)c1ccc(CN2c3ccncc3Sc3ccncc32)cc1` [Compound 7m, 4-[(10H-Dipyrido[3,4-b:3’,4’-e][1,4]thiazin-10-yl)methyl]-N-hydroxybenzamide], for which, in data set [4], the concentration for half-maximal inhibition (IC50) stood at 0.79 ± 0.14 µM. The “LE, HDAC6 (ligand efficiency)” value in data set [3] is on record as 0.46 (kcal/mol)/non-H-Atom. For the molecule `Cc1nc2c(s1)Sc1ccccc1N2Cc1ccc(C(=O)NO)cc1` [Compound 7o, N-Hydroxy-4-[(2-methyl-4H-benzo[b]thiazolo[4,5-e][1,4]thiazin-4-yl)methyl]benzamide], in data set [4], the half-maximal inhibitory concentration (IC50) is 5.05 ± 0.75 µM. In data set [3], the “SF 1/6, selectivity factor” value was determined as 136 and the “LE, HDAC6 (ligand efficiency)” value is reported as 0.42 (kcal/mol)/non-H-Atom.

In the case of `O=C(NO)c1ccc(CN2c3ccccc3Sc3ccnnc32)cc1` [Compound 7p, 4-[(10H-Benzo[b]pyridazino[3,4-e][1,4]thiazin-10-yl)methyl]-N-hydroxybenzamide], the IC50 in data set [4] was determined as 1.06 ± 0.08 µM. In addition, the “LE, HDAC6 (ligand efficiency)” value in data set [3] is 0.45 (kcal/mol)/non-H-Atom.

`O=C(NO)c1ccc(CN2c3ccccc3Sc3cc(Cl)nnc32)cc1` [Compound 7q, 4-[(3-Chloro-10H-benzo[b]pyridazino[3,4-e][1,4]thiazin-10-yl)methyl]-N-hydroxybenzamide]: in data set [4], the IC50 was determined as 1.08 ± 0.04 µM. In addition, the “LE, HDAC6 (ligand efficiency)” value in data set [3] is 0.42 (kcal/mol)/non-H-Atom. For `O=C(NO)c1ccc(CN2N=CC=C3Sc4ccccc4N=C32)cc1` [Compound 10p, 4-[(1H-Benzo[b]pyridazino[3,4-e][1,4]thiazin-1-yl)methyl]-N-hydroxybenzamide], in that order: 0.75 ± 0.04 µM and 0.44 (kcal/mol)/non-H-Atom.

`O=C(NO)c1ccc(CN2N=C(Cl)C=C3Sc4ccccc4N=C32)cc1` [Compound 10q, 4-[(3-Chloro-1H-benzo[b]pyridazino[3,4-e][1,4]thiazin-1-yl)methyl]-N-hydroxybenzamide]: the concentration for half-maximal inhibition (IC50) in data set [4] came out at 4.58 ± 0.73 µM. The “LE, HDAC6 (ligand efficiency)” value in data set [3] is 0.38 (kcal/mol)/non-H-Atom. On to `CN1CCC2=C(C1)N(Cc1ccc(C(=O)NO)cc1)c1ccccc1S2` [Compound 14j, N-Hydroxy-4-[(2-methyl-1,2,3,4-tetrahydro-10H-benzo[b]pyrido[3,4-e][1,4]thiazin-10-yl)methyl]benzamide], for which the “LE, HDAC6 (ligand efficiency)” value in data set [3] is 0.41 (kcal/mol)/non-H-Atom. Consider `O=C(NO)c1ccc(N2c3ccccc3Sc3ccccc32)cc1` [Compound 18, N-Hydroxy-4-(10H-phenothiazin-10-yl)benzamide], for which the IC50 in data set [4] was 5.87 ± 0.71 µM. Also, in data set [3], the “SF 1/6, selectivity factor” value worked out at 2 and the “LE, HDAC6 (ligand efficiency)” value is on record as 0.33 (kcal/mol)/non-H-Atom. The corresponding values for `O=C(NO)c1ccc(CCN2c3ccccc3Sc3ccccc32)cc1` [Compound 22, 4-[2-(10H-Phenothiazin-10-yl)ethyl]-N-hydroxybenzamide] are 11.7 ± 2.61 µM, 86 and 0.37 (kcal/mol)/non-H-Atom.

In the case of `CON(C)C(=O)c1ccc(CN2c3ccccc3Sc3ccccc32)cc1` [Compound 23, 4-[(10H-Phenothiazin-10-yl)methyl]-N-methoxy-N-methylbenzamide], the “activity on HDAC1 (in words)” value in data set [4] is “completely inactive”. Further, in data set [3], the “activity on HDAC6 (in words)” value was “completely inactive”. Consider `O=C(NO)c1ccc(CC(=O)N(CCO)c2ccccc2)cc1` [HPOB, N-hydroxy-4-(2-[(2-hydroxyethyl)(phenyl)amino]-2-oxoethyl)benzamide], for which, in data set [5], the “selectivity over HDAC1” value is reported as ~ 50 fold. Take `CCCCN(Cc1ccc(C(=O)NO)cc1)C(=O)Nc1ccccc1` [Nexturastat A]: the “selectivity over HDAC1” value in data set [5] was ~ 600 fold. Regarding `CN1CCc2c(n(Cc3ccc(C(=O)NO)cc3)c3ccccc23)C1` [Regioisomer of Tubastatin], the “SF 1/6, selectivity factor” value in data set [5] (from published IC50 values) is listed as 3700. Take `O=C(CCCCCCNC(=O)c1cnc(N(c2ccccc2)c2ccccc2)nc1)NO` [Ricolinostat]: the “selectivity for HDAC6 relative to class I HDACs” value in data set [5] (introduction, literature statement) was “at least 10 fold”.
